Measured values from patent US9335332B2, “Nicotinamide phosphoribosyltransferase (NMPRTase) inhibitor for glioma therapy” (COUNCIL OF SCIENTIFIC AND INDUSTRIAL RESEARCH, priority 2010, dated 2016).

Experiments:
[1] = tested on: glioma derived cell line U87; assay: MTT viability assay, U87 cells; assay type: cell-based; conditions: Homo sapiens, U-87 MG, MTT at 48 hrs after addition of compounds
Method: Viability was measured by MTT assay at 48 hrs after addition of indicated compounds to U87 cells. The assays were carried out in triplicates and the mean value for each time point was used to generate the graph.
In accordance with the inventive steps, MTT assay was performed (Das, S.; El-Deiry, W. S.; Somasundaram, K. Efficient growth inhibition of HPV 16 E6-expressing cells by an adenovirus-expressing p53 homologue p73beta. Oncogene 2003, 22, 8394-402). A total of 1.5×10^3 cells/well were plated in a 96-well plate. After 24 h of plating, the cells were treated with indicated amounts of compounds. A measure of 20 μL (5 mg/mL) of MTT was added to each well 48 hrs after the addition of the compounds. MTT is a tetrazolium salt that is converted by living cells into purple formazan crystals. The medium was removed from the wells 3 hrs after MTT addition and 200 μL of DMSO (Dimethyl sulfoxide) was added to dissolve the formazan crystals, and then the absorbance was measured at 550 nm in an ELISA reader.
In accordance with the inventive steps, to correlate the NMPRTase inhibition property with cell growth inhibition, the ability of these compounds to inhibit the growth of a glioma derived cell line U87 was tested, which has elevated levels of PBEF1.

[2] = biological target: T1, NMPRTase (Homo sapiens, UniProt P43490); assay: NMPRTase assay: conversion of 14[C]-nicotinamide to 14[C]-NAD by U87 cell extract; assay type: biochemical; conditions: 14[C]-NAD formed, FIG. 2C, 3A and 3B
T1 construct: To prepare cytoplasmic extract, as source of NMPRTase, logarithmically growing U87 glioblastoma cells were collected; endogenous in cells; host or cells: U87 glioblastoma cells (cytoplasmic extract)
Method: In accordance with the inventive steps, the measurement of NMPRTase activity was carried. To prepare cytoplasmic extract, as source of NMPRTase, logarithmically growing U87 glioblastoma cells were collected by centrifugation and washed three times with Ca^2+, Mg^2+ free PBS. The cells pellet (2 to 3×10^7 cells) was suspended and lysed in 1 mL of 0.01 M NaH2PO4 (pH 7.4) by one round of freezing and slow thawing. The clear supernatant was recovered on ice after centrifugation at 23,000×g at 0° C. for 90 mins. […] of 1% protamine sulfate were added per ml of supernatant and incubated for 15 min on ice, followed by centrifugation at 23,000×g at 0° C. for 30 mins. The final supernatant was stored in small aliquots at −80° C. The NMPRTase activity was determined in 0.5 ml of reaction solution consisting of 5 mM MgCl2, 2 mM ATP, 0.5 mM phosphoribosyl PPI (pyrophosphate), 0.1 mM 14[C]-nicotinamide (specific activity: 50 mCi/mmol; American Radiolabeled Chemicals, Inc.) and 50 mM Tris (pH 8.8) at 37° C. […] The precipitate was removed by centrifugation at 2500×g at 4° C. for 10 min and the supernatant was stored at −20° C. The 14[C]-labeled components in the cell extracts were separated and identified using thin-layer chromatography (cellulose/1 M ammonium sulphate:ethanol (3:7). The chromatograms were run and exposed to imaging plates (Fuji) read using Phosphoimger (Fuji) the 14[C]-labeled NAD was quantified using Alpha Innotec software.
In accordance with the inventive steps, selected compounds were tested for inhibition of NMPRTase activity. Measurement of the ability of NMPRTase to convert 14[C]-nicotinamide to 14[C]-NAD was carried out. Most of the glioblastoma tissues have elevated levels of transcript and protein of PBEF1/NMPRTase. To prepare NMPRTase enzyme, firstly a panel of glioma derived cell lines was tested for NMPRTase transcript and protein levels.

[3] = biological target: T1, NMPRTase; conditions: reference compounds, Table 1A; cited from earlier work

T1 sequence (P43490 whole entry): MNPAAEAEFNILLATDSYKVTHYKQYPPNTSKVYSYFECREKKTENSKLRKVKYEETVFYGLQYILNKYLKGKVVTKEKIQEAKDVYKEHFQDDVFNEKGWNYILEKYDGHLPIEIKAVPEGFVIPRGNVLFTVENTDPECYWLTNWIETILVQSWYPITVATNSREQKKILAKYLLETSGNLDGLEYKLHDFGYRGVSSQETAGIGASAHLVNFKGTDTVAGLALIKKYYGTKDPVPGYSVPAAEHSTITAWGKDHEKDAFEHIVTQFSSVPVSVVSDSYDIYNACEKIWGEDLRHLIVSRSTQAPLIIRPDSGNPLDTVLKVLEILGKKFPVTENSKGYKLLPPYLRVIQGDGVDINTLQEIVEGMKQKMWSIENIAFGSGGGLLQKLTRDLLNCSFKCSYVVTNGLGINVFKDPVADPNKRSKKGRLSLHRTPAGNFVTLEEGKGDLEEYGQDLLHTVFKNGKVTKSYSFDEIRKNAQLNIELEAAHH

IC50 [1]	Inhibition of NMPRTase activity [2]	Structure (SMILES)	Biochemical energy of binding [3]
> 500 µM		CCOC(=O)c1nn(-c2ccccc2)c(=O)c2c(N)c(C#N)c(-c3ccco3)cc12 [Compound 2, Ethyl-5-amino-6-cyano-7-(2-furyl)-4-oxo-3-phenyl-3,4-dihydro-1-phthalazinecarboxylate]	
> 500 µM		CC(=O)c1cc(-n2nc3ccccc3n2)c(O)c(-n2nc3ccccc3n2)c1O [Compound 3, 1,[3,5-Di(2H-1,2,3-benzotriazol-2-yl)-2,4-dihydroxyphenyl]ethan-1-one]	
> 500 µM	inhibited NMPRTase activity	CC12OC(c3ccccc3)=CC(c3ccccc3)=C1C(c1ccccc1)=CC2=O (centres unmarked) [Compound 4, 7a-methyl-2,4,5-triphenyl-7,7a-dihydrocyclopenta[b]pyran-7-one]	
325 µM	inhibited NMPRTase activity	Nc1c(-c2ccc3ccccc3n2)c2ccc([N+](=O)[O-])cc2c(=O)n1Cc1ccccc1 [Compound 5, 3-amino-2-benzyl-7-nitro-4-(2-quinolyl)-1,2-dihydroisoquinolin-1-one]	
> 500 µM		Cc1nn(-c2ccccc2)nc1CNC(=O)C1=Cc2ccccc2OC1 [Compound 6, N-[(5-methyl-2-phenyl-2H-1,2,3-triazol-4-yl)methyl]-2H-chromene-3-carboxamide]	
170 µM	inhibited efficiently	O=C(/C=C/c1cccnc1)NCCCCC1CCN(C(=O)c2ccccc2)CC1 [FK866, reference compound]	-9.25 kcal/mol
> 500 µM		O=C(O)c1cccnc1 [Niacin, reference compound]	
> 500 µM		NC(=O)c1cccnc1 [Nicotinamide]	

Structure (SMILES)	IC50 [1]	Inhibition of NMPRTase activity [2]	Biochemical energy of binding [3]
O=C1c2cc(S(=O)(=O)[O-])ccc2-c2ccc(S(=O)(=O)[O-])cc21.[K+].[K+] [Compound 1, Dipotassium 9-oxo-9H-fluorene-2,7-disulfonate]	335 µM	did not inhibit NMPRTase activity	
